Structures are written as SMILES. Values joined by “and” are separate entries in the source; they are usually repeats but may differ in a detail not shown here. Identical values can stand only once.

Series [1] concerns the target T1, Cyclin E/CDK2 (Homo sapiens, UniProt P24941).
T1 construct: The expressed protein was approximately 34 kDa in size; made in house; host or cells: SF9 insect cells (baculovirus co-infection)
As to the kind of experiment: Cyclin E/CDK2 in vitro kinase assay (SPA, 33P-ATP, biotinylated Histone H1 peptide). Type of series: biochemical. The conditions noted are these: recombinant cyclin E/CDK2 from SF9 cells; 8 point serial dilutions in duplicate; 1 hour at room temperature.

In general, melting point refers to the temperature of the solid-liquid transition. In turn, `CS(=O)(=O)c1ccc(Nc2cc(-c3ccccc3)nc3c(C4CC4)cnn23)cc1` came in with a melting point of 210 to 211 °C. Still for that read-out and setting: the result for `CC(C)c1cnn2c(Nc3ccc(S(C)(=O)=O)cc3)cc(-c3ccccc3)nc12` reads 213 to 216 °C.

Compound `CS(=O)(=O)c1ccc(Nc2cc(-c3ccc(Cl)cc3)nc3c(Br)cnn23)cc1` came in with a melting point of 249 to 253 °C. On the same count and under the same terms, the value for `CCc1cnn2c(Nc3ccc(S(C)(=O)=O)cc3)cc(-c3ccccc3)nc12` was 192 to 194 °C; that for `CS(=O)(=O)c1ccc(Nc2cc(-c3ccccc3)nc3c(Br)cnn23)cc1` was 202 to 204 °C; that for `O=S(=O)(O)c1cccc(Nc2cc(-c3ccccc3)nc3c(Br)cnn23)c1` was 206 to 208 °C. The same measure, in the same setting: the result for `O=S(=O)(O)c1ccc(Nc2cc(-c3ccccc3F)nc3c(Br)cnn23)cc1` reads more than 250 °C. Same read-out and setting: the result for `CCc1cnn2c(Nc3ccc(S(=O)(=O)O)cc3)cc(-c3ccccc3)nc12` reads more than 250 °C; that for `CN(C)S(=O)(=O)c1ccc(Nc2cc(-c3ccccc3)nc3c(Br)cnn23)cc1`, 237 to 239 °C; that for `CC(C)(C)OC(=O)NCCNS(=O)(=O)c1ccc(Nc2cc(-c3ccccc3)nc3c(Br)cnn23)cc1`, 195 to 197 °C. In turn, `O=S(=O)(NCc1ccccc1)c1ccc(Nc2cc(-c3ccccc3)nc3c(Br)cnn23)cc1` displayed a melting point of 216 to 218 °C. Same read-out and setting: the value for `O=S(=O)(NCCCO)c1ccc(Nc2cc(-c3ccccc3)nc3c(Br)cnn23)cc1` was 165 to 168 °C; that for `O=S(=O)(Nc1ccccc1)c1ccc(Nc2cc(-c3ccccc3)nc3c(Br)cnn23)cc1` was 147 to 150 °C; that for `CC(C)(C)OC(=O)N1CCC(NS(=O)(=O)c2ccc(Nc3cc(-c4ccccc4)nc4c(Br)cnn34)cc2)CC1` was 127 to 129 °C. Still for that read-out and setting: the result for `CS(=O)(=O)c1ccc(Nc2cc(-c3ccccc3F)nc3c(Cl)cnn23)cc1` reads 232 to 235 °C; that for `O=S(=O)(NC1CCCC1)c1ccc(Nc2cc(-c3ccccc3)nc3c(Br)cnn23)cc1`, > 200 °C (dec.). Same read-out and setting: the value for `CC(CO)NS(=O)(=O)c1ccc(Nc2cc(-c3ccccc3)nc3c(Br)cnn23)cc1` (stereo not shown) was > 200 °C (dec.). `O=S(=O)(NCc1ccccn1)c1ccc(Nc2cc(-c3ccccc3)nc3c(Br)cnn23)cc1`: the melting point lay in the range of 101 to 103 °C. The same measure, in the same setting: the result for `O=S(=O)(NCc1cccnc1)c1ccc(Nc2cc(-c3ccccc3)nc3c(Br)cnn23)cc1` reads 110 to 114 °C; that for `O=S(=O)(O)CCNS(=O)(=O)c1ccc(Nc2cc(-c3ccccc3)nc3c(Br)cnn23)cc1`, 206 to 208 °C; that for `CS(=O)(=O)c1ccc(Nc2cc(-c3ccccc3F)nc3c(Br)cnn23)cc1`, 117 to 118 °C. The compound `CC(CO)(CO)NS(=O)(=O)c1ccc(Nc2cc(-c3ccccc3)nc3c(Br)cnn23)cc1` registered a melting point of 98 to 100 °C. The compound `COC(=O)CNS(=O)(=O)c1ccc(Nc2cc(-c3ccccc3)nc3c(Br)cnn23)cc1` displayed a melting point of 182 to 184 °C. As for `CN1CCN(S(=O)(=O)c2ccc(Nc3cc(-c4ccccc4)nc4c(Br)cnn34)cc2)CC1`, the melting point lay within 228 to 230 °C.

`O=S(=O)(N[C@@H](CO)Cc1ccccc1)c1ccc(Nc2cc(-c3ccccc3)nc3c(Br)cnn23)cc1` registered a melting point of 108 to 110 °C. The same measure, in the same setting: the value for `O=S(=O)(N[C@H](CO)Cc1ccccc1)c1ccc(Nc2cc(-c3ccccc3)nc3c(Br)cnn23)cc1` was 102 to 105 °C. On the same count and under the same terms, the result for `CS(=O)(=O)c1ccc(Nc2cc(-c3cccc(C(F)(F)F)c3)nc3c(Br)cnn23)cc1` reads 210 to 212 °C. In the case of `O=S(=O)(NCCO)c1cccc(Nc2cc(-c3ccccc3)nc3c(Br)cnn23)c1`, the melting point lay in the range of 87 to 90 °C.

`CC(O)CNS(=O)(=O)c1cccc(Nc2cc(-c3ccccc3)nc3c(Br)cnn23)c1` (stereo not shown) showed a melting point of 115 to 120 °C.

In turn, `CCc1cnn2c(Nc3ccc(S(=O)(=O)NCCN(C)C)cc3)cc(-c3ccccc3)nc12` had a melting point of 99 to 101 °C. The same measure, in the same setting: the value for `CC(C)c1cc(Nc2ccc(S(C)(=O)=O)cc2)n2ncc(Br)c2n1` was 214 to 215 °C.

Consider `CC(C)c1cc(Nc2ccccc2)n2ncc(Br)c2n1`, for which the melting point was in the range of 166 to 168 °C.

For the compound `CC(C)(C)c1cc(Nc2ccccc2)n2ncc(Br)c2n1`, the melting point was determined as 144 °C. Broadly, the IC50 is the concentration needed to halve the response being measured. `CS(=O)(=O)c1ccc(Nc2cc(-c3ccccc3Cl)nc3c(Br)cnn23)cc1` [Example 1]: the IC50 in series [1] was 400 nM and 1400 nM.

For `Clc1ccccc1-c1cc(Nc2ccccc2)n2ncc(Br)c2n1` [Example 2], the IC50 in series [1] came to 510 nM. `Fc1ccccc1-c1cc(Nc2ccccc2)n2ncc(Cl)c2n1` [Example 3]: the melting point lay in the range of 112 to 116 °C. Further, the concentration for half-maximal inhibition (IC50) in series [1] stood at 42 nM. Taken in the same sequence, the figures for `O=S(=O)(O)c1ccc(Nc2cc(-c3ccccc3)nc3c(Br)cnn23)cc1` [Example 22] were more than 250 °C and 82 nM. The matching figures for `CCNS(=O)(=O)c1ccc(Nc2cc(-c3ccccc3)nc3c(Br)cnn23)cc1` [Example 28]: 101 to 104 °C and 80 nM. The matching figures for `O=S(=O)(NCCO)c1ccc(Nc2cc(-c3ccccc3)nc3c(Br)cnn23)cc1` [Example 30]: 175 to 177 °C and 29 nM. `NS(=O)(=O)c1ccc(Nc2cc(-c3ccccc3)nc3c(Br)cnn23)cc1` [Example 31] gave a melting point of 206 to 208 °C. For the same compound, the IC50 in series [1] was 45 nM. Taken in the same sequence, the figures for `CNS(=O)(=O)c1ccc(Nc2cc(-c3ccccc3)nc3c(Br)cnn23)cc1` [Example 32] were 231 to 233 °C and 57 nM. The matching figures for `O=S(=O)(Nc1ccncc1)c1ccc(Nc2cc(-c3ccccc3)nc3c(Br)cnn23)cc1` [Example 38]: 192 to 195 °C and 40 nM.

`COCCNS(=O)(=O)c1ccc(Nc2cc(-c3ccccc3)nc3c(Br)cnn23)cc1` [Example 42] gave a melting point of 172 to 173 °C. Besides, the IC50 in series [1] turned out to be 70 nM. Taken in the same sequence, the figures for `CN(C)CCNS(=O)(=O)c1ccc(Nc2cc(-c3ccccc3)nc3c(Br)cnn23)cc1` [Example 43] were 165 to 167 °C and 34 nM. Taken in the same sequence, the figures for `O=S(=O)(c1ccc(Nc2cc(-c3ccccc3)nc3c(Br)cnn23)cc1)N(CCO)CCO` [Example 47] were 90 to 92 °C and 34 nM.

As to `CN(C)CC(C)(C)CNS(=O)(=O)c1ccc(Nc2cc(-c3ccccc3)nc3c(Br)cnn23)cc1` [Example 48], the melting point was in the range of 163 to 165 °C. Besides, the IC50 in series [1] was found to be 25 nM. The matching figures for `O=S(=O)(NC(CO)CO)c1ccc(Nc2cc(-c3ccccc3)nc3c(Br)cnn23)cc1` [Example 50]: 122 to 124 °C and 30 nM. Taken in the same sequence, the figures for `CN(C)CCCNS(=O)(=O)c1ccc(Nc2cc(-c3ccccc3)nc3c(Br)cnn23)cc1` [Example 53] were 78 to 80 °C and 11 nM.

For the origin of these results see US7205308B2, “Trisubstituted 7-aminopyrazolopyrimidines as cyclin dependent kinase inhibitors” (Schering Corporation, priority 2002, dated 2007).
